Experimental data as given in patent US6737383B1, “Herbicidal oxadiazolidines” (priority 1999, dated 2004).

Experiments:
bedstraw = test: Test B pre/postemergence bedstraw; format: in vivo, Galium aparine
Outline: (§1)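 Test chemicals in a non-phytotoxic solvent mixture with surfactant were sprayed preemergence onto planted seeds and postemergence onto plants 2 to 18 cm tall (1- to 4-leaf stage). After twelve to sixteen days in a greenhouse, injury was visually rated against untreated controls from 0 (no effect) to 10 (complete control).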

blackgrass = test: Test B pre/postemergence blackgrass; format: in vivo, Alopecurus myosuroides
Outline: as §1

surinam grass = test: Test B pre/postemergence surinam grass; format: in vivo, Brachiaria decumbens
Outline: as §1

corn = test: Test B pre/postemergence corn; format: in vivo, Zea mays
Outline: as §1

crabgrass = test: Test B pre/postemergence crabgrass; format: in vivo, Digitaria sanguinalis
Outline: as §1

giant foxtail = test: Test B pre/postemergence giant foxtail; format: in vivo, Setaria faberii
Outline: as §1

morningglory = test: Test B pre/postemergence morningglory; format: in vivo, Ipomoea hederacea
Outline: as §1

pigweed = test: Test B pre/postemergence pigweed; format: in vivo, Amaranthus retroflexus
Outline: as §1

rape = test: Test B pre/postemergence rape; format: in vivo, Brassica napus
Outline: as §1

soybean = test: Test B pre/postemergence soybean; format: in vivo, Glycine max
Outline: as §1

velvetleaf = test: Test B pre/postemergence velvetleaf; format: in vivo, Abutilon theophrasti
Outline: as §1

wheat = test: Test B pre/postemergence wheat; format: in vivo, Triticum aestivum
Outline: as §1

wild oat = test: Test B pre/postemergence wild oat; format: in vivo, Avena fatua
Outline: as §1

purple nutsedge = test: Test B pre/postemergence purple nutsedge; format: in vivo, Cyperus rotundus
Outline: as §1

rice = test: Test B flood test rice; format: in vivo, Oryza sativa
Outline: (§2)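 Read-out is a visual response score from 0 (no effect) to 10 (complete control), assigned by comparison with untreated controls. Treatment was applied at the 2-leaf stage, and plants stayed in the greenhouse for twelve to sixteen days before scoring.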

duck salad = test: Test B flood test duck salad; format: in vivo, Heteranthera limosa
Outline: as §2

[1] = Postemergence, Rate 62 g/ha, scale 0 to 10, 0 is no effect, 10 is complete control
[2] = Postemergence, Rate 250 g/ha, scale 0 to 10, 0 no effect, 10 complete control
[3] = Preemergence, Rate 31 g/ha, visual rating, scale 0 to 10 (0 no effect, 10 complete control)
[4] = Preemergence, Rate 62 g/ha, scale 0 to 10, 0 is no effect, 10 is complete control
[5] = Preemergence, Rate 125 g/ha, scale 0 to 10 (0 no effect, 10 complete control)
[6] = Preemergence, Rate 250 g/ha, scale of 0 to 10 where 0 is no effect and 10 is complete control
[7] = Rate 31 g/ha, Postemergence, scale 0 to 10
[8] = Rate 125 g/ha, Postemergence, scale 0 to 10, 0 no effect, 10 complete control
[9] = Rate 125 g/ha, Postemergence section (flood test species), scale 0 to 10, 0 no effect, 10 complete control
[10] = Rate 250 g/ha, headed Pre-emergence (flood test species), scale 0 to 10 (0 no effect, 10 complete control)
[11] = Rate 500 g/ha, Postemergence section of Table B, 0 to 10 scale (0 no effect, 10 complete control)
[12] = Rate 500 g/ha, headed Pre-emergence (flood test species), scale 0 to 10 (0 no effect, 10 complete control)
[13] = Rate 1000 g/ha, Pre-emergence (as headed), scale 0 to 10
[14] = Rate 2000 g/ha, Pre-emergence (as headed), scale 0 to 10
[15] = flood test, listed under Postemergence, Rate 250 g/ha, scale 0 to 10, 0 no effect, 10 complete control

For `COc1ccccc1-n1c(=O)on(C(=O)N(c2ccc(F)cc2)C(C)C)c1=O` [Compound 30], the “Bedstraw plant response rating” value (bedstraw; [1]) was 0, the “Bedstraw plant response rating” value (bedstraw; [2]) was 0 and the “Bedstraw plant response rating” value (bedstraw; [3]) was 0. The “Plant response rating, Bedstraw” value (bedstraw; [4]) was 0, the “Plant response rating, Bedstraw” value (bedstraw; [5]) was 0 and the “Plant response rating, Bedstraw” value (bedstraw; [6]) was 0. The “Bedstraw plant response rating” value (bedstraw; [7]) was 0, the “Bedstraw plant response rating” value (bedstraw; [8]) was 0 and the “Blackgrass plant response rating” value (blackgrass; [1]) was 0. For the same molecule, the “Blackgrass plant response rating” value (blackgrass; [2]) was 2, the “Blackgrass plant response rating” value (blackgrass; [3]) was 0 and the “Plant response rating, Blackgrass” value (blackgrass; [4]) was 3. For the same molecule, the “Plant response rating, Blackgrass” value (blackgrass; [5]) was 3, the “Plant response rating, Blackgrass” value (blackgrass; [6]) was 7 and the “Blackgrass plant response rating” value (blackgrass; [7]) was 0. For the same molecule, the “Blackgrass plant response rating” value (blackgrass; [8]) was 0, the “B. signalgrass plant response rating” value (surinam grass; [1]) was 0 and the “B. signalgrass plant response rating” value (surinam grass; [2]) was 0. The “B. signalgrass plant response rating” value (surinam grass; [3]) was 0, the “Plant response rating, B. signalgrass” value (surinam grass; [4]) was 0 and the “Plant response rating, B. signalgrass” value (surinam grass; [5]) was 0. The “Plant response rating, B. signalgrass” value (surinam grass; [6]) was 4, the “B. signalgrass plant response rating” value (surinam grass; [7]) was 0 and the “B. signalgrass plant response rating” value (surinam grass; [8]) was 0. For the same molecule, the “Corn plant response rating” value (corn; [1]) was 0, the “Corn plant response rating” value (corn; [2]) was 0 and the “Corn plant response rating” value (corn; [3]) was 0. For the same molecule, the “Plant response rating, Corn” value (corn; [4]) was 0, the “Plant response rating, Corn” value (corn; [5]) was 0 and the “Plant response rating, Corn” value (corn; [6]) was 0. For the same molecule, the “Corn plant response rating” value (corn; [7]) was 0, the “Corn plant response rating” value (corn; [8]) was 0 and the “Crabgrass plant response rating” value (crabgrass; [1]) was 1. For the same molecule, the “Crabgrass plant response rating” value (crabgrass; [2]) was 9, the “Crabgrass plant response rating” value (crabgrass; [3]) was 2 and the “Plant response rating, Crabgrass” value (crabgrass; [4]) was 3. The “Plant response rating, Crabgrass” value (crabgrass; [5]) was 9, the “Plant response rating, Crabgrass” value (crabgrass; [6]) was 10 and the “Crabgrass plant response rating” value (crabgrass; [7]) was 0. For the same molecule, the “Crabgrass plant response rating” value (crabgrass; [8]) was 8, the “Giant foxtail plant response rating” value (giant foxtail; [1]) was 0 and the “Giant foxtail plant response rating” value (giant foxtail; [2]) was 3. For the same molecule, the “Giant foxtail plant response rating” value (giant foxtail; [3]) was 2, the “Plant response rating, Giant foxtail” value (giant foxtail; [4]) was 2 and the “Plant response rating, Giant foxtail” value (giant foxtail; [5]) was 3. For the same molecule, the “Plant response rating, Giant foxtail” value (giant foxtail; [6]) was 10, the “Giant foxtail plant response rating” value (giant foxtail; [7]) was 0 and the “Giant foxtail plant response rating” value (giant foxtail; [8]) was 2. For the same molecule, the “Morningglory plant response rating” value (morningglory; [1]) was 1, the “Morningglory plant response rating” value (morningglory; [2]) was 6 and the “Morningglory plant response rating” value (morningglory; [3]) was 0. For the same molecule, the “Plant response rating, Morningglory” value (morningglory; [4]) was 0, the “Plant response rating, Morningglory” value (morningglory; [5]) was 0 and the “Plant response rating, Morningglory” value (morningglory; [6]) was 0. The “Morningglory plant response rating” value (morningglory; [7]) was 1, the “Morningglory plant response rating” value (morningglory; [8]) was 1 and the “Redroot pigweed plant response rating” value (pigweed; [1]) was 0. For the same molecule, the “Redroot pigweed plant response rating” value (pigweed; [2]) was 0, the “Redroot pigweed plant response rating” value (pigweed; [3]) was 0 and the “Plant response rating, Redroot pigweed” value (pigweed; [4]) was 0. For the same molecule, the “Plant response rating, Redroot pigweed” value (pigweed; [5]) was 0, the “Plant response rating, Redroot pigweed” value (pigweed; [6]) was 7 and the “Redroot pigweed plant response rating” value (pigweed; [7]) was 0. The “Redroot pigweed plant response rating” value (pigweed; [8]) was 0, the “Rape plant response rating” value (rape; [1]) was 0 and the “Rape plant response rating” value (rape; [2]) was 0. For the same molecule, the “Rape plant response rating” value (rape; [3]) was 0, the “Plant response rating, Rape” value (rape; [4]) was 0 and the “Plant response rating, Rape” value (rape; [5]) was 0. The “Plant response rating, Rape” value (rape; [6]) was 0, the “Rape plant response rating” value (rape; [7]) was 0 and the “Rape plant response rating” value (rape; [8]) was 0. For the same molecule, the “Soybean plant response rating” value (soybean; [1]) was 1, the “Soybean plant response rating” value (soybean; [2]) was 2 and the “Soybean plant response rating” value (soybean; [3]) was 0. The “Plant response rating, Soybean” value (soybean; [4]) was 0, the “Plant response rating, Soybean” value (soybean; [5]) was 0 and the “Plant response rating, Soybean” value (soybean; [6]) was 0. For the same molecule, the “Soybean plant response rating” value (soybean; [8]) was 1, the “Velvetleaf plant response rating” value (velvetleaf; [1]) was 0 and the “Velvetleaf plant response rating” value (velvetleaf; [2]) was 0. The “Velvetleaf plant response rating” value (velvetleaf; [3]) was 0, the “Plant response rating, Velvetleaf” value (velvetleaf; [4]) was 0 and the “Plant response rating, Velvetleaf” value (velvetleaf; [5]) was 0. The “Plant response rating, Velvetleaf” value (velvetleaf; [6]) was 3, the “Velvetleaf plant response rating” value (velvetleaf; [8]) was 0 and the “Wheat plant response rating” value (wheat; [1]) was 0. The “Wheat plant response rating” value (wheat; [2]) was 0, the “Wheat plant response rating” value (wheat; [3]) was 0 and the “Plant response rating, Wheat” value (wheat; [4]) was 0. The “Plant response rating, Wheat” value (wheat; [5]) was 0, the “Plant response rating, Wheat” value (wheat; [6]) was 2 and the “Wheat plant response rating” value (wheat; [8]) was 0. For the same molecule, the “Wild oats plant response rating” value (wild oat; [1]) was 0, the “Wild oats plant response rating” value (wild oat; [2]) was 0 and the “Wild oats plant response rating” value (wild oat; [3]) was 0. The “Plant response rating, Wild oats” value (wild oat; [5]) was 2, the “Plant response rating, Wild oats” value (wild oat; [6]) was 8 and the “Wild oats plant response rating” value (wild oat; [8]) was 0. The “Nutsedge plant response rating” value (purple nutsedge; [1]) was 0, the “Nutsedge plant response rating” value (purple nutsedge; [2]) was 0 and the “Nutsedge plant response rating” value (purple nutsedge; [3]) was 0. For the same molecule, the “Plant response rating, Nutsedge” value (purple nutsedge; [4]) was 0, the “Plant response rating, Nutsedge” value (purple nutsedge; [5]) was 0 and the “Plant response rating, Nutsedge” value (purple nutsedge; [6]) was 0. The “Nutsedge plant response rating” value (purple nutsedge; [7]) was 0, the “Nutsedge plant response rating” value (purple nutsedge; [8]) was 0 and the “Rice plant response rating” value (rice; [1]) was 0. The “Rice plant response rating” value (rice; [9]) was 0, the “Rice plant response rating” value (rice; [10]) was 0 and the “Rice plant response rating” value (rice; [11]) was 0. The “Plant response rating, Rice” value (rice; [12]) was 0, the “Rice plant response rating” value (rice; [13]) was 0 and the “Rice plant response rating” value (rice; [14]) was 0. The “Rice plant response rating” value (rice; [15]) was 0, the “Ducksalad plant response rating” value (duck salad; [1]) was 0 and the “Ducksalad plant response rating” value (duck salad; [9]) was 0. The “Ducksalad plant response rating” value (duck salad; [10]) was 0, the “Ducksalad plant response rating” value (duck salad; [11]) was 0 and the “Plant response rating, Ducksalad” value (duck salad; [12]) was 0. The “Ducksalad plant response rating” value (duck salad; [13]) was 0, the “Ducksalad plant response rating” value (duck salad; [14]) was 0 and the “Ducksalad plant response rating” value (duck salad; [15]) was 0.
